Reference: patent US20100210700A1, “METHODS OF TREATMENT USING INTRAVENOUS FORMULATIONS COMPRISING TEMOZOLOMIDE” (SCHERING CORPORATION, priority 2007, published 2010)
Like-named read-outs stand apart in the source and are kept apart here.

Experiments:
[1] = Clinical bioequivalence study, IV (1.5-hr infusion) vs oral TMZ, primary CNS malignancies; assay type: in vivo, human; conditions: for Tmax / half-life / AUC / Cmax / concentration at 0 hr / concentration at 0.25 hr / concentration at 0.5 hr / concentration at 1 hr / concentration at 1.25 hr / concentration at 1.5 hr / concentration at 1.75 hr / concentration at 2 hr / concentration at 2.5 hr / concentration at 3 hr / concentration at 4 hr / concentration at 6 hr / concentration at 8 hr: human, plasma; for Tmax: read-out: Tmax, Median (range); for half-life: read-out: t½ terminal-phase half-life, Mean (CV, %) (converted); for concentration at 0 hr / concentration at 0.25 hr / concentration at 0.5 hr / concentration at 1 hr / concentration at 1.25 hr / concentration at 1.5 hr / concentration at 1.75 hr / concentration at 2 hr / concentration at 2.5 hr / concentration at 3 hr / concentration at 4 hr / concentration at 6 hr / concentration at 8 hr: read-out: Mean Temozolomide Concentration
Method: Twenty-two patients with primary CNS malignancies were enrolled in a clinical bioequivalence study and treated according to the methods of the present invention. Nineteen of the patients were considered to be pharmacokinetic evaluable. This study was a randomized, open-label, 2-way cross over study of the PK of oral and IV TMZ. The IV formulation of Example 3 is administered at a dosage of 150-200 mg/m^2 by intravenous infusion over a period of about 1.5 hours.
The patients are divided into two groups, those receiving Treatment A and those receiving Treatment B. The Treatment A patients receive oral TMZ (200 mg/m^2) on Days 1, 2 and 5, IV TMZ 150 mg/m2 on Day 3, and oral TMZ (150 mg/m^2) on Day 4 of a 28 day cycle. The Treatment B patients receive oral TMZ (200 mg/m^2) on Days 1, 2 and 5, Oral TMZ (150 mg/m^2) on Day 3 and IV TMZ (150 mg/m^2) on Day 4 of a 28 day cycle. Cmax and AUC for TMZ and MTIC are determined according to methods known to those skilled in the art on Days 3 and 4.

[2] = Two-way crossover pilot bioavailability study, IV (1-hour infusion) vs PO temozolomide; assay type: in vivo, human; conditions: for bioavailability / AUC / Cmax: human, plasma; for bioavailability: po, 150 mg/m^2/day, humans, n=13 patients; for AUC / Cmax: n = 13
Method: To validate the IV PK model, the first pass effects and oral bioavailability were determined in a two-way crossover pilot bioavailability study. This was a Phase-1, randomized, open-label pilot study designed to compare the relative bioavailability of IV and PO temozolomide in adult patients with histologically confirmed primary CNS malignancies. The study was conducted in conformance with Good Clinical Practices. Up to 18 patients (to yield 12 evaluable patients) were planned to be enrolled at 1 or 2 centers. 13 patients were enrolled at 2 centers (7 at Center 1, 6 at Center 2). All 13 patients were included in pharmacokinetic and safety analyses. Patients were followed for 23 days after treatment ended for safety evaluations.
After fulfilling all study eligibility requirements, the patients received temozolomide for 5 days (Days 1 to 5) during a 4-week treatment cycle. On Days 1, 2, and 5, patients received temozolomide (200 mg/m^2/day) as a PO dose. On Days 3 and 4, patients received Temozolomide (150 mg/m^2/day) as a PO dose on one day and as an IV dose on the other day. The IV dose was administered by 1-hour infusion (using an infusion pump) either on Day 3 or Day 4 according to a random code. Pharmacokinetic evaluations were performed on Days 3 and 4 for determination of concentrations of temozolomide and MTIC in plasma.

[3] = PO TMZ, Dose = 150 mg/m^2, Actual n = 12; cited from earlier work
[4] = 1.5-hr infusion vs PO, 150 mg/m^2/day, n = 19
[5] = TMZ IV 1.5 hr infusion, 150 mg/m^2/day, n = 19
[6] = 150 mg/m2, TMZ PO, 150 mg/m^2/day, n = 19
[7] = IV 1.5 hr infusion, 150 mg/m^2/day, n = 19
[8] = IV 1.5 hr infusion, 150 mg/m^2/day, n = 18
[9] = 1-hour infusion vs PO, 150 mg/m2/day

- AUC(I) Ratio Estimate IV to PO [1, 4]: 105%
- AUC(I) ratio IV to PO, 90% Confidence Interval [1, 4]: 102-108%
- AUC(tf) Ratio Estimate IV to PO [1, 4]: 106%
- AUC(tf) ratio IV to PO, 90% Confidence Interval [1, 4]: 103-109%
- Cmax Ratio Estimate IV to PO [1, 4]: 97%
- Cmax ratio IV to PO, 90% Confidence Interval [1, 4]: 91-102%
- bioequivalence of IV (1.5-hr infusion) and oral formulations ([1]; Cmax, AUC(tf), AUC(I) of temozolomide and MTIC, n=19): bioequivalent
- tf time of final quantifiable sample, Mean (CV, %) [1, 5]: 8.00 (0) hr
- tf time of final quantifiable sample, Mean (CV, %) ([1]; TMZ PO, 150 mg/m^2/day, n = 19): 8.00 (0) hr
- Tmax [1, 6]: 1 h
- half-life [1, 6]: 1.91 h
- AUC ([1]; iv, 150 mg/m2, IV infusion about 1 hour to about 2 hours, single dose of 150 mg/m2, read-out: arithmetic AUC (from time zero to infinity) for temozolomide, range): 17600 to 37000 ng·h/mL
- Cmax ([1]; iv, 150 mg/m2, IV infusion about 1 hour to about 2 hours, single dose of 150 mg/m2, read-out: arithmetic maximum plasma concentration (Cmax) of temozolomide, range): 5500 to 10600 ng/mL
- AUC ([1]; iv, 150 mg/m2, IV infusion about 1 hour to about 2 hours, single dose of 150 mg/m2, read-out: arithmetic mean AUC (from time zero to infinity) for temozolomide): ~25000 ng·h/mL
- Cmax ([1]; iv, 150 mg/m2, IV infusion about 1 hour to about 2 hours, single dose of 150 mg/m2, read-out: arithmetic mean maximum plasma concentration (Cmax) of temozolomide): ~7400 ng/mL
- AUC ([1]; iv, 150 mg/m2, arithmetic mean AUC (from time zero to infinity) for temozolomide, IV infusion about 1 hour to about 2 hours, single dose of 150 mg/m2, heading: arithmetic mean AUC for temozolomide): ~25000 ng·h/mL
- AUC ([1]; iv, 150 mg/m^2/day, TMZ IV 1.5 hr infusion, 150 mg/m^2/day, n = 19, read-out: AUC(I) of TMZ, Mean): 25000 ng·h/mL
- AUC ([1]; iv, 150 mg/m^2/day, TMZ IV 1.5 hr infusion, 150 mg/m^2/day, n = 19, read-out: AUC(tf) of TMZ, Mean): 23400 ng·h/mL
- Cmax ([1]; iv, 150 mg/m^2/day, TMZ IV 1.5 hr infusion, 150 mg/m^2/day, n = 19, read-out: Cmax of TMZ, arithmetic Mean): 7440 ng/mL
- AUC ([1]; iv, 150 mg/m^2/day, TMZ IV 1.5 hr infusion, 150 mg/m^2/day, n = 19 PE, read-out: AUC(I) of TMZ, IV Mean (least-squares)): 24600 ng·h/mL
- AUC ([1]; iv, 150 mg/m^2/day, TMZ IV 1.5 hr infusion, 150 mg/m^2/day, n = 19 PE, read-out: AUC(tf) of TMZ, IV Mean (least-squares)): 23100 ng·h/mL
- Cmax ([1]; iv, 150 mg/m^2/day, TMZ IV 1.5 hr infusion, 150 mg/m^2/day, n = 19 PE, read-out: Cmax of TMZ, IV Mean (least-squares)): 7290 ng/mL
- AUC ([1]; po, 150 mg/m2, TMZ PO, 150 mg/m^2/day, n = 19, read-out: AUC(I) of TMZ, Mean): 23600 ng·h/mL
- AUC ([1]; po, 150 mg/m2, TMZ PO, 150 mg/m^2/day, n = 19, read-out: AUC(tf) of TMZ, Mean): 22000 ng·h/mL
- Cmax ([1]; po, 150 mg/m2, TMZ PO, 150 mg/m^2/day, n = 19, read-out: Cmax of TMZ, arithmetic Mean): 7680 ng/mL
- AUC ([1]; po, 150 mg/m2, TMZ PO, 150 mg/m^2/day, n = 19 PE, read-out: AUC(I) of TMZ, PO Mean (least-squares)): 23400 ng·h/mL
- AUC ([1]; po, 150 mg/m2, TMZ PO, 150 mg/m^2/day, n = 19 PE, read-out: AUC(tf) of TMZ, PO Mean (least-squares)): 21800 ng·h/mL
- Cmax ([1]; po, 150 mg/m2, TMZ PO, 150 mg/m^2/day, n = 19 PE, read-out: Cmax of TMZ, PO Mean (least-squares)): 7540 ng/mL
- concentration at 0 hr [1, 7]: 0 ng/mL
- concentration at 0.25 hr [1, 8]: 2380 ng/mL
- concentration at 0.5 hr [1, 7]: 3670 ng/mL
- concentration at 1 hr [1, 7]: 5490 ng/mL
- concentration at 1.25 hr [1, 8]: 6590 ng/mL
- concentration at 1.5 hr [1, 7]: 7080 ng/mL
- concentration at 1.75 hr [1, 7]: 6100 ng/mL
- concentration at 2 hr [1, 7]: 5600 ng/mL
- concentration at 2.5 hr [1, 7]: 4590 ng/mL
- concentration at 3 hr [1, 8]: 3860 ng/mL
- concentration at 4 hr [1, 7]: 2810 ng/mL
- concentration at 6 hr [1, 7]: 1200 ng/mL
- concentration at 8 hr [1, 7]: 590 ng/mL
- concentration at 0 hr ([1]; PO, 150 mg/m^2/day, n = 19): 0 ng/mL
- concentration at 0.25 hr ([1]; PO, 150 mg/m^2/day, n = 19): 2110 ng/mL
- concentration at 0.5 hr ([1]; PO, 150 mg/m^2/day, n = 19): 5320 ng/mL
- concentration at 1 hr ([1]; PO, 150 mg/m^2/day, n = 19): 6050 ng/mL
- concentration at 1.25 hr ([1]; PO, 150 mg/m^2/day, n = 18): 6120 ng/mL
- concentration at 1.5 hr ([1]; PO, 150 mg/m^2/day, n = 19): 5770 ng/mL
- concentration at 1.75 hr ([1]; PO, 150 mg/m^2/day, n = 18): 5360 ng/mL
- concentration at 2 hr ([1]; PO, 150 mg/m^2/day, n = 19): 4890 ng/mL
- concentration at 2.5 hr ([1]; PO, 150 mg/m^2/day, n = 19): 4000 ng/mL
- concentration at 3 hr ([1]; PO, 150 mg/m^2/day, n = 19): 3440 ng/mL
- concentration at 4 hr ([1]; PO, 150 mg/m^2/day, n = 19): 2410 ng/mL
- concentration at 6 hr ([1]; PO, 150 mg/m^2/day, n = 19): 1170 ng/mL
- concentration at 8 hr ([1]; PO, 150 mg/m^2/day, n = 19): 560 ng/mL
- Tmax [1, 5]: 1.5 h
- half-life [1, 5]: 1.82 h
- AUC Ratio Estimate IV/PO [2, 9]: 104%
- AUC ratio IV/PO, 90% C.I. [2, 9]: 97-112%
- Cmax Ratio Estimate IV/PO [2, 9]: 114%
- Cmax ratio IV/PO, 90% C.I. [2, 9]: 100-131%
- bioavailability ([2]; read-out: oral bioavailability): 96%
- bioavailability ([2]; read-out: oral bioavailability, range): 89 to 100%
- AUC ([2]; TMZ IV 1-hour infusion, 150 mg/m2/day, read-out: AUC of TMZ, IV Mean (least-squares)): 21500 ng·h/mL
- Cmax ([2]; TMZ IV 1-hour infusion, 150 mg/m2/day, read-out: Cmax of TMZ, IV Mean (least-squares)): 7100 ng/mL
- AUC ([2]; TMZ PO, 150 mg/m2/day, read-out: AUC of TMZ, PO Mean (least-squares)): 20700 ng·h/mL
- Cmax ([2]; TMZ PO, 150 mg/m2/day, read-out: Cmax of TMZ, PO Mean (least-squares)): 6200 ng/mL
Compound: Cn1nnc2c(C(N)=O)ncn2c1=O [TMZ, 3,4-dihydro-3-methyl-4-oxoimidazo[5,1-d]-as-tetrazine-8-carboxamide]
- Maximum AUC [3]: 35400 ng·h/mL
- Maximum Cmax [3]: 16800 ng/mL
- Mean AUC [3]: 24800 ng·h/mL
- Mean Cmax [3]: 8800 ng/mL
- Minimum AUC [3]: 17700 ng·h/mL
- Minimum Cmax [3]: 2600 ng/mL
